Measured values from patent publication US11576896B2, “Benzoselenophene-based compounds, pharmaceutical compositions and antibody-drug conjugates including the same” (AIMED BIO INC., priority 2020, dated 2023).
Read-outs that look alike come from different tables or passages of the source.

Key:
[1] = system: Gastric cancer cells NCI-N87; experiment: High-throughput screening (HTS) cytotoxicity, ATPlite assay; type: cell-based; parameters: AUC (area under the curve): unit not given beside the values; conditions: NCI-N87 (HER+), 384-well, 72 hours; for IC50: Homo sapiens
Procedure: (§1) The present inventors used an HTS system capable of screening various drugs or substances at once to further screen cytotoxicity of DS-26 (Example 1) and DS-28 (Comparative Example 1). Gastric cancer cells NCI-N87 and ovarian cancer cells SK-OV-3 were separately seeded in a 384-well and treated with drugs at various concentrations and cultured for 72 hours. Then, the degree of cell growth was measured by ATPlite assay. The measured data were converted into IC50 using GraphPad Prism 5.0 software, and area under the curve (AUC) was converted to analyze the titer of each drug.
(§2) Also, DS-26 has stable solubility and stability in terms of chemical structure and thus considered worthy to be developed into drugs.

[2] = system: ovarian cancer cells SK-OV-3; experiment: as above; type: cell-based; parameters: AUC (area under the curve): unit not given beside the values; conditions: for IC50: Homo sapiens
Procedure: as §1, §2

[3] = SK-OV-3 (HER+), 384-well, 72 hours, ATPlite, read-out: IC50
[4] = SK-OV-3 (HER+), 384-well, 72 hours, ATPlite

## COc1ccc2c(O)cc3c(c2c1)[C@H](CCl)CN3C(=O)c1cc2cc(NC(=O)CCN(C)C)ccc2[se]1 [DS-26, (S)—N-(2-(1-(chloromethyl)-5-hydroxy-8-methoxy-2,3-dihydro-1H-benzo[e]indole-3-carbonyl)benzo[b]selenophen-5-yl)-3-(dimethylamino)propanamide]
[1]
  IC50: 0.00555 nM
  AUC (area under the curve): 477
[2]; [3]
  IC50: 0.042 nM
[2]; text summary of Table 1 and FIGS. 2A-3B, cell line not specified (NCI-N87 and SK-OV-3 tested), read-out: IC50 (text summary of HTS result)
  IC50: 0.04 to 0.05 nM
[2]; [4]
  AUC (area under the curve): 481

## COCCOCCOCCOCCOc1cc2[se]c(C(=O)N3C[C@@H](CCl)c4c3cc(O)c3ccc(OC)cc43)cc2cc1NC(C)=O [DS-28, reference compound]
[1]
  IC50: 5.86 nM
  AUC (area under the curve): 689
[2]; [3]
  IC50: 1.68 nM
[2]; [4]
  AUC (area under the curve): 613
